In experiment [1] the test system is visceral insular cortex (VIC) of rats. The note with it: intra-VIC, cited from earlier work.
In experiment [2] the test system is AEA and 2-AG in rat whole brain tissue. Particulars: ref Limebeer et al. 2014; cited from earlier work.
Experiment [3] relates to 2AG and AEA levels in nucleus accumbens. The note with it: localized brain area; ref Wiskerke et al. (2012); cited from earlier work.
Experiment [4] deals with male Sprague-Dawley rats. The note with it: cited from earlier work.
In the next experiment the test system is rat MAGL. The note with it: ref Limebeer et al. 2014; cited from earlier work.
Experiment [5] concerns male Sprague-Dawley rats. Particulars: cited from earlier work. The source holds these as a separate data set.
The subject of experiment [6] is 2-AG and AEA in VIC tissue. The note with it: systemic and intra-VIC administration; ref Sticht et al. (2015); cited from earlier work.
The subject of experiment [7] is male Sprague-Dawley rats. Format: in vivo, rat. The note with it: SR141716 2.5 mg/kg 90 min after AM4301 20 mg/kg.
In experiment [8] the test system is male Sprague-Dawley rats. Nature of the experiment: Anticipatory nausea: contextually elicited conditioned gaping. Format: in vivo, rat.
[9] abbreviates: 10–20 mg/kg systemic, CB1 receptor-dependent, ref Parker et al. 2014.

Like-named read-outs stand apart in the source and are kept apart here.

For the molecule `CCCCCCC(C)(C)c1cc(O)c2c(c1)OC(C)(C)[C@@H]1CC=C(CO)C[C@@H]21` [HU-210], the “acute nausea after administration into the VIC” value in [1] (ref Limebeer et al. 2012) is recorded as “suppressed”.

`O=C(Oc1ccc([N+](=O)[O-])cc1)N1CCN(Cc2cccc(Oc3ccccc3)c2)CC1` [JZL195]: in experiment [2], the “AEA in rat whole brain tissue” value is recorded as “elevated”. Further, in experiment [3], the “elevation of 2AG level in nucleus accumbens” value is recorded as “about 50%” and the “elevation of AEA level in nucleus accumbens” value is listed as approximately 100%. Besides, the “anticipatory nausea, dual FAAH/MAGL inhibitor” value with male Sprague-Dawley rats [4] (10 mg/kg, ref Limebeer et al. 2014) is listed as “suppresses”. Moreover, the “blocking the activities of rat MAGL in whole brain analysis” value in the experiment with rat MAGL is on record as “ineffective”.

On to `O=C(ON1C(=O)CCC1=O)N1CCN(C(c2ccc(Cl)cc2)c2ccc(Cl)cc2)CC1` [MJN110], for which, in the experiment with male Sprague-Dawley rats [5] (setting [9]), the “acute nausea, systemic MAGL inhibitor” value is listed as “suppresses”. In experiment [6], the “2-AG in the VIC” value is listed as “elevates”. In experiment [1] (ref Sticht et al. 2012b), the “acute nausea after administration into the VIC” value is “suppressed”. In the experiment on male Sprague-Dawley rats [4] (setting [9]), the “anticipatory nausea, systemic MAGL inhibitor” value is “suppresses”.

As for `Cc1c(C(=O)NN2CCCCC2)nn(-c2ccc(Cl)cc2Cl)c1-c1ccc(Cl)cc1` [SR141716], the “reversal of AM4301 suppression of acute nausea by CB1 antagonist” value in the experiment with male Sprague-Dawley rats [7] is “reversed the suppressive effect of AM4301”. The “reversal of AM4302 suppression of anticipatory nausea by CB1 antagonist” value in the experiment with male Sprague-Dawley rats [8] (SR 2.5 mg/kg 90 min after AM4302 20 mg/kg) is on record as “reversed”. Also, the “effect of CB1 antagonist on its own on contextually elicited gaping” value in the experiment with male Sprague-Dawley rats [8] (VEH-SR 2.5 mg/kg) is on record as “did not have an effect on its own”.

With `NC(=O)c1cccc(-c2cccc(OC(=O)NC3CCCCC3)c2)c1` [URB597, cyclohexyl carbamic acid 3′-carbamoyl-biphenyl-3-yl ester], the “acute nausea, systemic FAAH inhibitor” value with male Sprague-Dawley rats [5] (0.3 mg/kg systemic, ref Cross-Mellor et al. 2007) is listed as “suppresses”. In addition, in the experiment on male Sprague-Dawley rats [4] (0.3 mg/kg systemic, ref Rock et al. 2008), the “anticipatory nausea, systemic FAAH inhibitor” value is given as “suppresses”.

The values are drawn from paper PMC5531749 (Psychopharmacology, 2016).
